Laboratory results: article PMC6009898 (Journal of Enzyme Inhibition and Medicinal Chemistry, 2017)
Like-named read-outs stand apart in the source and are kept apart here.

How the values were obtained:
Aβ (1–42) [1] = biological target: T1, Aβ (1–42) (Homo sapiens, UniProt P05067); assay: Inhibition of Cu^2+-induced Aβ (1–42) aggregation (ThT assay); assay type: biochemical; conditions: Aβ 25 μM, compound 50 μM, Cu^2+ 25 μM, 37 °C, 24 h; read-out: Inhibition of Cu^2+-induced Aβ aggregation
Description: The mixture of the peptide (10 μL, 25 μM, final concentration) with or without copper (10 μL, 25 μM, final concentration) and the test compound (10 μL, 50 μM, final concentration) were incubated at 37 °C for 24 h. The 20 μL of the sample was diluted to a final volume of 200 μL with […] glycine–NaOH buffer (pH 8.0) containing ThT (5 μM). The detection method was the same as that of self-induced Aβ aggregation experiment.

[2] = biological target: T2, BuChE (from equine serum) (Equus caballus, UniProt P81908); assay: biochemical; assay type: biochemical; conditions: for IC50: means ± SD of three experiments
T2 construct: butyrylcholinesterase (BuChE, E.C. 3.1.1.8) from equine serum and human serum; purchased Sigma-Aldrich (St. Louis, MO); host or cells: equine serum
T2 sequence (P81908 whole entry): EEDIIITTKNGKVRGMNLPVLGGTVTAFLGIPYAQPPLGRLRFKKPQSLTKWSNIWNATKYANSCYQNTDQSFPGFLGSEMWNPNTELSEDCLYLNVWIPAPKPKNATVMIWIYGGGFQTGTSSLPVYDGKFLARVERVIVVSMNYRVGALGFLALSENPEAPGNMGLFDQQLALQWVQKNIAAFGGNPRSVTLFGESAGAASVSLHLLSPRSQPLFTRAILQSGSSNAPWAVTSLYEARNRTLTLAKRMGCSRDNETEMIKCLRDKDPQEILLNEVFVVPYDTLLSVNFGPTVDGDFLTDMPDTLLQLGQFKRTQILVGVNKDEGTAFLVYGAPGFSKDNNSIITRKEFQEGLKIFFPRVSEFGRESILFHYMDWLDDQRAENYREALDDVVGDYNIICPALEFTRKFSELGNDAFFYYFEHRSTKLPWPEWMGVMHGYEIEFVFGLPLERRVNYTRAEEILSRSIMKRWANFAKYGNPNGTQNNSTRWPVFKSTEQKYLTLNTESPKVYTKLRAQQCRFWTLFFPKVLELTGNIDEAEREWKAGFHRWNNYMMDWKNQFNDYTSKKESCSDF

AChE (from electric eel) = biological target: T3, AChE (from electric eel) (Electrophorus electricus, UniProt O42275); assay: biochemical; conditions: means ± SD of three experiments; read-out: IC50 eeAChE
T3 construct: Acetylcholinesterase (E.C. 3.1.1.7) from electric eel and human erythrocytes; purchased Sigma-Aldrich (St. Louis, MO); host or cells: electric eel (natural source)
T3 sequence (O42275 24-633): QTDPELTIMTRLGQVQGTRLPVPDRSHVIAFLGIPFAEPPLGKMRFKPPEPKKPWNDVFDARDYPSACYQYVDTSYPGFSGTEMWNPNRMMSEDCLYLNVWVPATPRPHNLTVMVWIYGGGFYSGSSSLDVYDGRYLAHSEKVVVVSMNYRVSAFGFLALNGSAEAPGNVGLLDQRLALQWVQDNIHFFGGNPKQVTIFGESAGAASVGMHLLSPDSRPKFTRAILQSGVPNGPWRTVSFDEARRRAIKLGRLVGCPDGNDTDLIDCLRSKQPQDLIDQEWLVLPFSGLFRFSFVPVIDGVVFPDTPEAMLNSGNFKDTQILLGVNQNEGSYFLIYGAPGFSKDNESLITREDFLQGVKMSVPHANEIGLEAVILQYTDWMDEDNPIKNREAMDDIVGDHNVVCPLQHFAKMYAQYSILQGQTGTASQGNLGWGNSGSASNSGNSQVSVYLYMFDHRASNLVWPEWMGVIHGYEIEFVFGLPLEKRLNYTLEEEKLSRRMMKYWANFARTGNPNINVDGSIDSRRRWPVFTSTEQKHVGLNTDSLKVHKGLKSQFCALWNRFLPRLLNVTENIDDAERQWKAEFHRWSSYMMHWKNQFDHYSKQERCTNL

Aβ (1–42) [3] = biological target: T1, Aβ (1–42); assay: Inhibition of Aβ (1–42) self-induced aggregation (Thioflavin T assay); conditions: read-out: Aβ (1–42) aggregation inhibition (%)
human AChE = biological target: T4, human AChE (Homo sapiens, UniProt P22303); assay: biochemical; conditions: means ± SD of three experiments; read-out: IC50 hAChE
T4 construct: Acetylcholinesterase (E.C. 3.1.1.7) from electric eel and human erythrocytes; purchased Sigma-Aldrich (St. Louis, MO); host or cells: human erythrocytes
T4 sequence (P22303 other isoform, or with tags, fused parts or gaps): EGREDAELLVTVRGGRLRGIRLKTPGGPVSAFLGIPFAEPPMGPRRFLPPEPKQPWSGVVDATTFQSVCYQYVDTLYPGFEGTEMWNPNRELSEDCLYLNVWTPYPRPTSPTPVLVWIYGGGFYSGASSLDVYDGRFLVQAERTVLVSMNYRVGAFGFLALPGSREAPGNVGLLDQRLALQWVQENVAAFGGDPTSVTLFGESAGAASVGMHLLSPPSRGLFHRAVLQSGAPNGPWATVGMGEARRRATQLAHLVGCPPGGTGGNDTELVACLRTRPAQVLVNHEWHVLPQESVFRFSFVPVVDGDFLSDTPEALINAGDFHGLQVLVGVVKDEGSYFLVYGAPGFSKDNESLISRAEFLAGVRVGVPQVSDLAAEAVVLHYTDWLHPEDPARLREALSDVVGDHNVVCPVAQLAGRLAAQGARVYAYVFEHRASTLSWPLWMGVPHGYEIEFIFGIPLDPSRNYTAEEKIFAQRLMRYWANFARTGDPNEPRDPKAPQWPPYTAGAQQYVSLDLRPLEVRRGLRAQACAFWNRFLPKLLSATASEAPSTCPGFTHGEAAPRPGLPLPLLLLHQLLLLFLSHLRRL

in vitro = assay: in vitro; set-up: Papp at 16 h: dose or concentration left out as unconfirmed; conditions: PAMPA
Description: Commercial drugs were purchased from Sigma (St. Louis, MO) and Alfa Aesar (Haverhill, MA). The porcine brain lipid (PBL) was obtained from Avanti Polar Lipids (Alabaster, AL). The donor microplate (PVDF membrane, pore size […]) and the acceptor microplate were both from Millipore (Darmstadt, Germany). The 96-well UV plate (COSTAR^@) was from Corning Incorporated (Harrodsburg, KY). The acceptor 96-well microplate was filled with 300 μL of PBS/EtOH (7:3), and the filter membrane was impregnated with 4 μL of PBL in dodecane (20 mg/mL). […] The […] was carefully placed on the donor plate to form a sandwich, which was left undisturbed for 16 h at 25 °C. After incubation, the donor plate was carefully removed and the concentration of compound in the acceptor wells was determined using an UV plate reader (Flexstation^@ 3). Every sample was analyzed at five wavelengths, in four wells, in at least three independent runs, and the results are given as the mean ± SD. In each experiment, nine quality control standards of known BBB permeability were included to validate the analysis set.

AChE = conditions: cited from earlier work

T1 sequence (P05067 672-713): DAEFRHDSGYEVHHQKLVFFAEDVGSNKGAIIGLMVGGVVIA

Structure (SMILES) | IC50 (AChE (from electric eel)) [nM] | IC50 ([2]; IC50 eqBuChE) [nM] | ABTS assay (trolox equiv) | inhibition at 20 µM (Aβ (1–42) [3]) [%] | other results
Oc1c(I)cc(Cl)c2cccnc12 [CQ, Clioquinol, reference compound] |  |  |  |  | inhibition at 50 µM (Aβ (1–42) [1]): 60.2%
O=C(O)/C=C/c1ccccc1 [Cinnamic acid, reference compound] |  |  |  |  | IC50 ([2]; read-out: IC50 eqBuChE): > 100000 nM
O=C(C=Cc1ccccc1)Nc1cc[n+](Cc2ccccc2)cc1.[Br-] [Compound 5a, 1-Benzyl-4-cinnamamidopyridin-1-ium bromide] | 54.1 ± 8.2 | 6300 ± 600 | N^c (N means <0.05) | 46.3 ± 1.6 | 
Cc1cccc(C[n+]2ccc(NC(=O)C=Cc3ccccc3)cc2)c1.[Br-] [Compound 5b, 4-Cinnamamido-1-(3-methylbenzyl) pyridin-1-ium bromide] | 103 ± 9.6 | 8100 ± 1300 | N (N means <0.05) | 48.5 ± 1.8 | 
Cc1ccc(C[n+]2ccc(NC(=O)C=Cc3ccccc3)cc2)cc1.[Br-] [Compound 5c, 4-Cinnamamido-1-(4-methylbenzyl) pyridin-1-ium bromide] | 1263.8 ± 1.2 | 25000 ± 700 | N (N means <0.05) | 55.1 ± 1.5 | 
O=C(C=Cc1ccccc1)Nc1cc[n+](Cc2cccc(F)c2)cc1.[Br-] [Compound 5d, 4-Cinnamamido-1-(3-fluorobenzyl) pyridin-1-ium bromide] | 93.5 ± 7.7 | 7400 ± 500 | N (N means <0.05) | 53.6 ± 2.3 | 
O=C(C=Cc1ccccc1)Nc1cc[n+](Cc2ccc(F)cc2)cc1.[Br-] [Compound 5e, 4-Cinnamamido-1-(4-fluorobenzyl) pyridin-1-ium bromide] | 90.8 ± 9.2 | 10000 ± 400 | N (N means <0.05) | 52.8 ± 1.8 | 
O=C(C=Cc1ccccc1)Nc1cc[n+](Cc2cccc(Br)c2)cc1.[Br-] [Compound 5f, 1-(3-Bromobenzyl)-4-cinnamamidopyridin-1-ium bromide] | 154 ± 2.6 | 2500 ± 300 | N (N means <0.05) | 48.8 ± 2.1 | 
O=C(C=Cc1ccccc1)Nc1cc[n+](Cc2ccc(Br)cc2)cc1.[Br-] [Compound 5g, 1-(4-Bromobenzyl)-4-cinnamamidopyridin-1-ium bromide] | 1451 ± 4.3 | 2100 ± 800 | N (N means <0.05) | 57.2 ± 1.1 | 
COc1ccc(/C=C/C(=O)Nc2cc[n+](Cc3ccccc3)cc2)cc1OC.[Br-] [Compound 5h, (E)-1-benzyl-4-(3-(3,4-dimethoxyphenyl)acrylamido) pyridin-1-ium bromide] | 135 ± 4.8 | 4500 ± 700 | N (N means <0.05) | 55.7 ± 3.2 | 
COc1ccc(/C=C/C(=O)Nc2cc[n+](Cc3cccc(C)c3)cc2)cc1OC.[Br-] [Compound 5i, (E)-4-(3-(3,4-dimethoxyphenyl)acrylamido)-1-(3-methylbenzyl) pyridin-1-ium bromide] |  | 2700 ± 800 | N (N means <0.05) | 53.9 ± 0.9 | IC50 (human AChE): 43.7 ± 0.5 nM
COc1ccc(/C=C/C(=O)Nc2cc[n+](Cc3ccc(C)cc3)cc2)cc1OC.[Br-] [Compound 5j, (E)-4-(3-(3,4-dimethoxyphenyl)acrylamido)-1-(4-methylbenzyl) pyridin-1-ium bromide] | 90.7 ± 3.2 | 3800 ± 900 | N (N means <0.05) | 63.4 ± 2.8 | IC50 (human AChE): 96.5 ± 2.8 nM
COc1ccc(/C=C/C(=O)Nc2cc[n+](Cc3cccc(F)c3)cc2)cc1OC.[Br-] [Compound 5k, (E)-4-(3-(3,4-dimethoxyphenyl)acrylamido)-1-(3-fluorobenzyl) pyridin-1-ium bromide] | 20.6 ± 1 | 3100 ± 500 | N (N means <0.05) | 65.6 ± 2.3 | IC50 (human AChE): 19.2 ± 1.6 nM
COc1ccc(/C=C/C(=O)Nc2cc[n+](Cc3cccc(Br)c3)cc2)cc1OC.[Br-] [Compound 5m, (E)-1-(3-bromobenzyl)-4-(3-(3,4-dimethoxyphenyl)acrylamido) pyridin-1-ium bromide] | 92.6 ± 9 | 2500 ± 600 | N (N means <0.05) | 62.8 ± 1.4 | IC50 (human AChE): 79.4 ± 1.5 nM
COc1ccc(/C=C/C(=O)Nc2cc[n+](Cc3ccc(Br)cc3)cc2)cc1OC.[Br-] [Compound 5n, (E)-1-(4-bromobenzyl)-4-(3-(3,4-dimethoxyphenyl)acrylamido) pyridin-1-ium bromide] | 50.3 ± 8.3 | 1900 ± 500 | N (N means <0.05) | 66.3 ± 2.9 | Times more potent against BuChE than donepezil ([2]; eqBuChE IC50 compared with donepezil): 2.3 times; IC50 (human AChE): 51.1 ± 4.8 nM
COc1cc(/C=C/C(=O)CC(=O)/C=C/c2ccc(O)c(OC)c2)ccc1O [Curcumin, reference compound] |  |  |  | 54.6 ± 2.6 | 
CC(=O)[C@H]1CC[C@H]2[C@@H]3CCC4=CC(=O)CC[C@]4(C)[C@H]3CC[C@]12C [Progesterone, reference compound] |  |  |  |  | Papp at 16 h (in vitro): 5.34 ×10⁻⁶ cm/s
[Br-].c1ccc(C[n+]2ccccc2)cc1 [benzyl pyridinium bromide] |  |  |  |  | AChE inhibition (AChE): micromolar range
